Assays:
Assay type in all cases: cell-based, chick
[1] = biological target: T1, α7 AChR M^40C mutant (C^115A/L^247T background) (Gallus gallus, UniProt P22770, C138A/L270T/M63C)
T1 construct: expressed in transfected cells; host or cells: Xenopus laevis oocytes injected with cRNA
Text: A cDNA clone of the chick α7 receptor containing two mutations (C^115A, L^247T) was used as the parental phenotype for mutations described in this study. We mutated the lone unpaired cysteine in the extracellular domain (C^115) to alanine to allow for a more straightforward interpretation of thiol modification experiments. […] We included the mutation of leucine 247 in the M2 transmembrane domain (L^247T; L9'T) because of its large current amplitudes and non-desensitizing kinetics compared to wild-type α7 receptors. […] All mutations were introduced by site-directed mutagenesis using the QuikChange method (Agilent Technologies, La Jolla, CA) as described previously, and were confirmed by DNA sequencing. […]
Oocytes were superfused in normal extracellular solution containing a reduced Ca^2+ concentration (ESLC; 96 mM NaCl, 2 mM KCl, 1 mM MgCl2, 0.1 mM CaCl2, and 10 mM HEPES, pH 7.5). […] Currents were recorded at a constant holding potential of -60 mV. […]
(§1) MTSEA was prepared daily in distilled water and stored on ice. […] Kinetic data were analyzed as described previously; rate data were fit to a single exponential to extract a pseudo-first order rate constant; this was divided by the MTSEA concentration used to determine the second order rate constant for thiol modification.

[2] = biological target: α7 AChR E^44C mutant (C^115A/L^247T background) (Gallus gallus, UniProt P22770, C138A/E67C/L270T); experiment: ACh dose-response, two-electrode voltage clamp in Xenopus oocytes
Text: (§2) A cDNA clone of the chick α7 receptor containing two mutations (C^115A, L^247T) was used as the parental phenotype for mutations described in this study. We mutated the lone unpaired cysteine in the extracellular domain (C^115) to alanine to allow for a more straightforward interpretation of thiol modification experiments. […] We included the mutation of leucine 247 in the M2 transmembrane domain (L^247T; L9'T) because of its large current amplitudes and non-desensitizing kinetics compared to wild-type α7 receptors. […] All mutations were introduced by site-directed mutagenesis using the QuikChange method (Agilent Technologies, La Jolla, CA) as described previously, and were confirmed by DNA sequencing.
(§3) cRNA was prepared using the T7 RNA polymerase and mMessage mMachine kit as described by the manufacturer (Applied Biosystems, Austin, TX). Oocytes were surgically removed and prepared from female Xenopus laevis in accordance with UNC Institutional Animal Care and Use Committee guidelines. Oocytes were injected with 20 ng of cRNA and incubated at 18°C in ND96 (96 mM NaCl, 2 mM KCl, 1 mM MgCl2, 1.8 mM CaCl2, 5 mM Na pyruvate, 50 μg/ml gentamicin, 5 mM HEPES, pH 7.5) for 2–5 days before use. For some mutants we co-injected cRNA encoding the human RIC-3 [38], a protein shown to enhance expression of α7 AChRs in both mammalian cells and oocytes.
(§4) Oocytes were superfused in normal extracellular solution containing a reduced Ca^2+ concentration (ESLC; 96 mM NaCl, 2 mM KCl, 1 mM MgCl2, 0.1 mM CaCl2, and 10 mM HEPES, pH 7.5). […] Two-electrode voltage clamp was performed with a GeneClamp 500B controlled by pCLAMP8 software (Molecular Devices, Sunnyvale, CA). Electrodes were filled with 3 M KCl contacting Ag-AgCl wires and had resistances of 0.5 to 2.0 MΩ. Currents were recorded at a constant holding potential of -60 mV. Currents were low pass filtered at 50 Hz and sampled at 100 Hz. Agonist dose-response curves were obtained as described previously, and data were fit to the Hill equation using Origin software (Microcal Software, Northampton, MA).
as §1, with “ice. Stock solution was diluted to the appropriate working concentration in ESLC immediately before each application. […] To measure the effect of Ba^2+ on modification rates we pre-applied 10 mM Ba^2+ for 30 seconds prior to co-application of 10 mM Ba^2+ plus MTSEA.” for “ice.”

[3] = biological target: α7 AChR E^172C mutant (C^115A/L^247T background) (Gallus gallus, UniProt P22770, C138A/E195C/L270T); experiment: as above; conditions: co-expression with human RIC-3
Text: as §2, §3, §4
as §1, with “ice. Stock solution was diluted to the appropriate working concentration in ESLC immediately before each application. […] To measure the effect of Ba^2+ on modification rates we pre-applied 10 mM Ba^2+ for 30 seconds prior to co-application of 10 mM Ba^2+ plus MTSEA.” for “ice.”

[4] = biological target: α7 C^115A/L^247T receptor (Gallus gallus, UniProt P22770, C138A/L270T); experiment: as above
Text: as §2, §3, §4
as §1, with “ice. Stock solution was diluted to the appropriate working concentration in ESLC immediately before each application. […] To measure the effect of Ba^2+ on modification rates we pre-applied 10 mM Ba^2+ for 30 seconds prior to co-application of 10 mM Ba^2+ plus MTSEA.” for “ice.”

[5] = biological target: α7 AChR M^37C mutant (C^115A/L^247T background) (Gallus gallus, UniProt P22770, C138A/L270T/M60C); experiment: as above
Text: as §2, §3, §4
as §1, with “ice. Stock solution was diluted to the appropriate working concentration in ESLC immediately before each application. […] To measure the effect of Ba^2+ on modification rates we pre-applied 10 mM Ba^2+ for 30 seconds prior to co-application of 10 mM Ba^2+ plus MTSEA.” for “ice.”

[6] = biological target: α7 AChR N^52C mutant (C^115A/L^247T background) (Gallus gallus, UniProt P22770, C138A/L270T/N75C); experiment: as above
Text: as §2, §3, §4
as §1, with “ice. Stock solution was diluted to the appropriate working concentration in ESLC immediately before each application. […] To measure the effect of Ba^2+ on modification rates we pre-applied 10 mM Ba^2+ for 30 seconds prior to co-application of 10 mM Ba^2+ plus MTSEA.” for “ice.”

[7] = biological target: α7 AChR N^170C mutant (C^115A/L^247T background) (Gallus gallus, UniProt P22770, C138A/L270T/N193C); experiment: as above; conditions: co-expression with human RIC-3
Text: as §2, §3, §4
as §1, with “ice. Stock solution was diluted to the appropriate working concentration in ESLC immediately before each application. […] To measure the effect of Ba^2+ on modification rates we pre-applied 10 mM Ba^2+ for 30 seconds prior to co-application of 10 mM Ba^2+ plus MTSEA.” for “ice.”

[8] = biological target: α7 AChR M^40C/E^172Q mutant (C^115A/L^247T background) (Gallus gallus, UniProt P22770, C138A/E195Q/L270T/M63C); experiment: as above; conditions: co-expression with human RIC-3
Text: as §2, §3, §4
as §1, with “ice. Stock solution was diluted to the appropriate working concentration in ESLC immediately before each application. […] To measure the effect of Ba^2+ on modification rates we pre-applied 10 mM Ba^2+ for 30 seconds prior to co-application of 10 mM Ba^2+ plus MTSEA.” for “ice.”

CC(=O)OCC[N+](C)(C)C [ACh, acetylcholine chloride]
ACh Imax [1]: 3.0 μA
ACh Imax [2]: 5.4 μA
Hill coefficient of ACh dose-response ([2]; + 10 mM BaCl2): 2.9 ± 0.7
Hill coefficient of ACh dose-response ([2]; -Ba^2+): 1.7 ± 0.2
ACh Imax [3]: 1.3 μA
ACh Imax [4]: 6.9 μA
Hill coefficient of ACh dose-response ([4]; + 10 mM BaCl2): 1.9 ± 0.4
Hill coefficient of ACh dose-response ([4]; -Ba^2+): 2.5 ± 0.2
ACh Imax [5]: 0.92 μA
ACh Imax [6]: 0.34 μA
ACh Imax [7]: 1.7 μA
ACh Imax [8]: 0.7 μA

Reference: article PMC2632993, “Conformational changes in α7 acetylcholine receptors underlying allosteric modulation by divalent cations” (BMC Pharmacology, 2009)
